Key:
Format in all cases: in vivo
[1] = tested on: bermudagrass (Cynodon dactylon); experiment: Test B pre-/postemergence plant response
Summary of the method: (§1)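 Seeds sown in loam–sand blend were treated preemergence, and plants at 2–18 cm (1- to 4-leaf stage) in peat-based medium were treated postemergence; compounds were formulated in non-phytotoxic solvent with surfactant. After 13–15 days in greenhouse, response was visually rated against controls, 0 (no effect) to 100 (complete control).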

[2] = tested on: blackgrass (Alopecurus myosuroides); experiment: Test B pre-/postemergence plant response
Summary of the method: as §1

[3] = tested on: cocklebur (Xanthium strumarium); experiment: Test B pre-/postemergence plant response
Summary of the method: as §1

[4] = tested on: downy bromegrass (Bromus tectorum); experiment: Test B pre-/postemergence plant response
Summary of the method: as §1

[5] = tested on: giant foxtail (Setaria faberii); experiment: Test B pre-/postemergence plant response
Summary of the method: as §1

[6] = tested on: green foxtail (Setaria viridis); experiment: Test B pre-/postemergence plant response
Summary of the method: as §1

[7] = tested on: johnsongrass (Sorghum halepense); experiment: Test B pre-/postemergence plant response
Summary of the method: as §1

kochia (Kochia scoparia) = experiment: Test B pre-/postemergence plant response; conditions: Postemergence; for Plant response rating, Kochia: scale 0 (no effect) to 100 (complete control)
Summary of the method: as §1

[8] = tested on: morningglory (Ipomoea coccinea); experiment: Test B pre-/postemergence plant response
Summary of the method: as §1

[9] = tested on: ragweed (common ragweed, Ambrosia elatior); experiment: Test B pre-/postemergence plant response
Summary of the method: as §1

soybean (Glycine max) = experiment: Test B pre-/postemergence plant response
Summary of the method: as §1

[10] = tested on: velvetleaf (Abutilon theophrasti); experiment: Test B pre-/postemergence plant response
Summary of the method: as §1

[11] = tested on: wheat (Triticum aestivum); experiment: Test B pre-/postemergence plant response
Summary of the method: as §1

wild oat (Avena fatua) = experiment: Test B pre-/postemergence plant response
Summary of the method: as §1

[12] = tested on: yellow nutsedge (Cyperus esculentus); experiment: Test B pre-/postemergence plant response
Summary of the method: as §1

[13] = tested on: canarygrass (Phalaris minor); experiment: Test B postemergence plant response; conditions: Postemergence
Summary of the method: (§2)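 Visual ratings from 0 (no effect) to 100 (complete control), made against controls 13–15 days after treatment, kept in a greenhouse. Compounds were applied postemergence to potted plants at the 1- to 4-leaf stage (2–18 cm).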

[14] = tested on: chickweed (Stellaria media); experiment: Test B postemergence plant response; conditions: Postemergence
Summary of the method: as §2

[15] = tested on: windgrass (Apera spica-venti); experiment: Test B postemergence plant response; conditions: Postemergence, scale 0 (no effect) to 100 (complete control)
Summary of the method: as §2

[16] = 250 g ai/ha, Preemergence, 0 to 100 scale
[17] = Postemergence, 31 g ai/ha, scale 0 to 100 (0 no effect, 100 complete control)
[18] = Postemergence, 62 g ai/ha, scale 0 (no effect) to 100 (complete control), 13 to 15 days
[19] = Postemergence, 125 g ai/ha, visual rating after 13 to 15 days, scale 0 (no effect) to 100 (complete control)
[20] = Postemergence, 250 g ai/ha, scale 0 to 100
[21] = Preemergence, 31 g ai/ha, scale 0 to 100 (0 no effect, 100 complete control)
[22] = Preemergence, 62 g ai/ha, scale 0 to 100, 0 no effect, 100 complete control
[23] = Preemergence, 125 g ai/ha, 0 to 100 scale
[24] = 125 g ai/ha, visual rating after 13 to 15 days
[25] = 31 g ai/ha, scale 0 to 100 (0 no effect, 100 complete control)
[26] = 62 g ai/ha, scale 0 (no effect) to 100 (complete control), 13 to 15 days
[27] = 125 g ai/ha, visual rating after 13 to 15 days, scale 0 (no effect) to 100 (complete control)

## O=C1CCCC(O)=C1C(=O)c1cnc(-c2cccc(Cl)c2)n(-c2ccccc2)c1=O [Compound 34]
[1]; [16]
  Plant response rating, Bermudagrass: 100
[1]; [17]
  Plant response rating, Bermudagrass: 75
[1]; [18]
  Plant response rating, Bermudagrass: 95
[1]; [19]
  Plant response rating, Bermudagrass: 95
[1]; [20]
  Bermudagrass plant response rating: 98
[1]; [21]
  Plant response rating, Bermudagrass: 100
[1]; [22]
  Plant response rating, Bermudagrass: 100
[1]; [23]
  Bermudagrass plant response rating: 100
[2]; [16]
  Plant response rating, Blackgrass: 50
[2]; [17]
  Plant response rating, Blackgrass: 0
[2]; [18]
  Plant response rating, Blackgrass: 5
[2]; [19]
  Plant response rating, Blackgrass: 10
[2]; [20]
  Blackgrass plant response rating: 40
[2]; [21]
  Plant response rating, Blackgrass: 0
[2]; [22]
  Plant response rating, Blackgrass: 5
[2]; [23]
  Blackgrass plant response rating: 50
[3]; [16]
  Plant response rating, Cocklebur: 85
[3]; [17]
  Plant response rating, Cocklebur: 0
[3]; [18]
  Plant response rating, Cocklebur: 25
[3]; [19]
  Plant response rating, Cocklebur: 85
[3]; [20]
  Cocklebur plant response rating: 95
[3]; [21]
  Plant response rating, Cocklebur: 0
[3]; [22]
  Plant response rating, Cocklebur: 55
[3]; [23]
  Cocklebur plant response rating: 75
[4]; [16]
  Plant response rating, Bromegrass, Downy: 80
[4]; [17]
  Plant response rating, Bromegrass, Downy: 40
[4]; [18]
  Plant response rating, Bromegrass, Downy: 50
[4]; [19]
  Plant response rating, Bromegrass, Downy: 50
[4]; [20]
  Bromegrass, Downy plant response rating: 50
[4]; [22]
  Plant response rating, Bromegrass, Downy: 0
[4]; [23]
  Bromegrass, Downy plant response rating: 10
[5]; [16]
  Plant response rating, Foxtail, Giant: 100
[5]; [17]
  Plant response rating, Foxtail, Giant: 85
[5]; [18]
  Plant response rating, Foxtail, Giant: 90
[5]; [19]
  Plant response rating, Foxtail, Giant: 95
[5]; [20]
  Foxtail, Giant plant response rating: 95
[5]; [21]
  Plant response rating, Foxtail, Giant: 15
[5]; [22]
  Plant response rating, Foxtail, Giant: 55
[5]; [23]
  Foxtail, Giant plant response rating: 90
[6]; [16]
  Plant response rating, Foxtail, Green: 100
[6]; [17]
  Plant response rating, Foxtail, Green: 70
[6]; [18]
  Plant response rating, Foxtail, Green: 90
[6]; [19]
  Plant response rating, Foxtail, Green: 90
[6]; [20]
  Foxtail, Green plant response rating: 95
[6]; [21]
  Plant response rating, Foxtail, Green: 50
[6]; [22]
  Plant response rating, Foxtail, Green: 70
[6]; [23]
  Foxtail, Green plant response rating: 90
[7]; [16]
  Plant response rating, Johnsongrass: 100
[7]; [18]
  Plant response rating, Johnsongrass: 90
[7]; [19]
  Plant response rating, Johnsongrass: 95
[7]; [20]
  Johnsongrass plant response rating: 100
[7]; [21]
  Plant response rating, Johnsongrass: 20
[7]; [22]
  Plant response rating, Johnsongrass: 75
[7]; [23]
  Johnsongrass plant response rating: 98
Kochia (Kochia scoparia); 62 g ai/ha, 13 to 15 days
  Plant response rating, Kochia: 95
Kochia (Kochia scoparia); [24]
  Plant response rating, Kochia: 100
Kochia (Kochia scoparia); 250 g ai/ha, scale 0 to 100
  Kochia plant response rating: 100
[8]; [16]
  Plant response rating, Morningglory: 98
[8]; [18]
  Plant response rating, Morningglory: 80
[8]; [19]
  Plant response rating, Morningglory: 85
[8]; [21]
  Plant response rating, Morningglory: 0
[8]; [22]
  Plant response rating, Morningglory: 0
[8]; [23]
  Morningglory plant response rating: 75
[9]; [16]
  Plant response rating, Ragweed: 90
[9]; [18]
  Plant response rating, Ragweed: 85
[9]; [19]
  Plant response rating, Ragweed: 95
[9]; [21]
  Plant response rating, Ragweed: 75
[9]; [22]
  Plant response rating, Ragweed: 80
[9]; [23]
  Ragweed plant response rating: 90
Soybean (Glycine max); [16]
  Plant response rating, Soybean: 80
Soybean (Glycine max); [18]
  Plant response rating, Soybean: 95
Soybean (Glycine max); [19]
  Plant response rating, Soybean: 95
Soybean (Glycine max); [21]
  Plant response rating, Soybean: 0
Soybean (Glycine max); [22]
  Plant response rating, Soybean: 45
Soybean (Glycine max); [23]
  Soybean plant response rating: 65
[10]; [16]
  Plant response rating, Velvetleaf: 100
[10]; [18]
  Plant response rating, Velvetleaf: 95
[10]; [19]
  Plant response rating, Velvetleaf: 98
[10]; [21]
  Plant response rating, Velvetleaf: 75
[10]; [22]
  Plant response rating, Velvetleaf: 85
[10]; [23]
  Velvetleaf plant response rating: 95
[11]; [16]
  Plant response rating, Wheat: 0
[11]; [18]
  Plant response rating, Wheat: 10
[11]; [19]
  Plant response rating, Wheat: 35
[11]; [22]
  Plant response rating, Wheat: 0
[11]; [23]
  Wheat plant response rating: 0
Wild oat (Avena fatua); [16]
  Plant response rating, Oat, Wild: 60
Wild oat (Avena fatua); [18]
  Plant response rating, Oat, Wild: 50
Wild oat (Avena fatua); [19]
  Plant response rating, Oat, Wild: 60
Wild oat (Avena fatua); [21]
  Plant response rating, Oat, Wild: 10
Wild oat (Avena fatua); [22]
  Plant response rating, Oat, Wild: 10
Wild oat (Avena fatua); [23]
  Oat, Wild plant response rating: 30
[12]; [16]
  Plant response rating, Nutsedge, Yellow: 90
[12]; [18]
  Plant response rating, Nutsedge, Yellow: 25
[12]; [19]
  Plant response rating, Nutsedge, Yellow: 55
[12]; [21]
  Plant response rating, Nutsedge, Yellow: 10
[12]; [22]
  Plant response rating, Nutsedge, Yellow: 45
[12]; [23]
  Nutsedge, Yellow plant response rating: 75
[13]; [25]
  Plant response rating, Canarygrass: 5
[13]; [26]
  Plant response rating, Canarygrass: 50
[13]; [27]
  Plant response rating, Canarygrass: 50
[13]; 250 g ai/ha, scale 0 to 100
  Canarygrass plant response rating: 50
[14]; [25]
  Plant response rating, Chickweed: 50
[14]; [26]
  Plant response rating, Chickweed: 75
[14]; [27]
  Plant response rating, Chickweed: 98
[14]; 250 g ai/ha, scale 0 to 100
  Chickweed plant response rating: 100
[15]; 62 g ai/ha, 13 to 15 days
  Plant response rating, Windgrass: 40
[15]; [24]
  Plant response rating, Windgrass: 50
